Reference: PMC8047743 (ACS Omega, 2021)

Tests used:
HepG2 cells = assay: In vitro cytotoxicity on HepG2 cells; assay type: cell-based; settings: 50 μM, 24 h, MTT
[1] = cited from earlier work

## Nc1c2c(nc3ccccc13)CCCC2 [tacrine, Tacrine]
HepG2 cells
  inhibitory rate (%) on HepG2 cells: 49.91 ± 0.61%
[1]
  patients with increased serum alanine aminotransferase levels: about 30%
